Test results reported in patent US9834556B2, “Process of preparing 3-(3-(4-aminocyclobutyl)phenyl)-5-phenyl-3H-imidazo[4,5-B]pyridin-2-YL)pyridin-2-amine” (ARQULE, INC., priority 2014, dated 2017).
Converted amounts (≈) assume the structure as drawn.

Key:
Type in all cases: physicochemical
Conditions in all cases: organic solvent or mixture
[1] = Solubility of 3 in HOAc, 2-MeTHF and THF
Protocol: Although the reaction was high yielding, the amount of solvent required to perform the reaction limited the throughput due to the poor solubility of 3 in EtOAc. It was therefore desirable to find an alternate solvent for this reaction to prevent the risk of poor conversion while increasing the volume efficiency. To address this issue, the solubility of 3 was evaluated in HOAc and THF in addition to 2-MeTHF. […] In one embodiment, THF is used for the hydrogenation reaction. In another embodiment, 2-MeTHF is used for the hydrogenation reaction. […] In one embodiment, when the hydrogenation reaction was run at 40 psi hydrogen pressure at 40° C., the reaction was typically complete in 2 to 3 hours. The final variable which was investigated was catalyst loading. The initial 10 wt % loading was reduced to 5 wt % without any decrease in reaction time, yield or purity.

[2] = Solubility of 3 in 2-MeTHF/heptane mixtures
Protocol: A series of experiments were performed to test the solubility of 3 in a mixture of 2-MeTHF and heptane.

[3] = Solubility of 6 in extraction solvents
Protocol: While this initial trial was very promising, in subsequent experiments on larger scale, complications were encountered. One issue was that during the neutralization of acetic acid, emulsions were often obtained. Multiple solvent systems were investigated and the solubility of 6 was evaluated to estimate the efficiency of the extraction (Table 17).

[4] = Solubility of 7 in a selection of solvents
From the text: Isolation of 7 from the MSA aqueous layer was completed by addition of DCM followed by basification with aqueous NaOH to extract the 7 free base into the DCM layer. […] Isolation from the DCM solution was developed by concentrating the volume of the DCM to induce crystallization followed by the addition of heptane as an anti-solvent. […] Possible solvents candidates which could be used to efficiently extract 7 were limited to DCM due to the poor solubility of 7 in a variety of common solvents (Table 19).

CC(C)(C)OC(=O)NC1(c2ccc(Nc3nc(-c4ccccc4)ccc3[N+](=O)[O-])cc2)CCC1 [Compound 3, tert-butyl (1-(4-((3-nitro-6-phenylpyridin-2-yl)amino)phenyl)cyclobutyl)carbamate]
solubility ([1]; in 2-MeTHF): 100000 µg/mL (≈ 217 mM)
solubility ([1]; in HOAc): 24800 µg/mL (≈ 53.9 mM)
solubility ([1]; in THF): 155000 µg/mL (≈ 337 mM)
solubility ([2]; 2-MeTHF/heptane 1/0 (v/v), 2-MeTHF/heptane (v/v) 1/0, 25° C.): 100000 µg/mL (≈ 217 mM)
solubility ([2]; 2-MeTHF/heptane 2/8 (v/v), 2-MeTHF/heptane (v/v) 2/8, 25° C.): 300 µg/mL (≈ 0.651 mM)
solubility ([2]; 2-MeTHF/heptane 3/7 (v/v), 2-MeTHF/heptane (v/v) 3/7, 25° C.): 1200 µg/mL (≈ 2.61 mM)
solubility ([2]; 2-MeTHF/heptane 4/6 (v/v), 2-MeTHF/heptane (v/v) 4/6, 25° C.): 3800 µg/mL (≈ 8.25 mM)
solubility ([2]; 2-MeTHF/heptane 5/5 (v/v), 2-MeTHF/heptane (v/v) 5/5, 25° C.): 4500 µg/mL (≈ 9.77 mM)
solubility ([2]; 2-MeTHF/heptane 6/4 (v/v), 2-MeTHF/heptane (v/v) 6/4, 25° C.): 8000 µg/mL (≈ 17.4 mM)
solubility ([2]; 2-MeTHF/heptane 7/3 (v/v), 2-MeTHF/heptane (v/v) 7/3, 25° C.): 13000 µg/mL (≈ 28.2 mM)
solubility ([2]; 2-MeTHF/heptane 8/2 (v/v), 2-MeTHF/heptane (v/v) 8/2, 25° C.): 23000 µg/mL (≈ 49.9 mM)
solubility ([2]; 2-MeTHF/heptane 9/1 (v/v), 2-MeTHF/heptane (v/v) 9/1, 25° C.): 32000 µg/mL (≈ 69.5 mM)

CC(C)(C)OC(=O)NC1(c2ccc(-n3c(-c4cccnc4N)nc4ccc(-c5ccccc5)nc43)cc2)CCC1 [Compound 6, tert-butyl (1-(4-(2-(2-aminopyridin-3-yl)-5-phenyl-3H-imidazo[4,5-b]pyridin-3-yl)phenyl)cyclobutyl)carbamate]
solubility ([3]; Solvent 2-MeTHF): 25000 µg/mL (≈ 46.9 mM)
solubility ([3]; Solvent DCM): 126000 µg/mL (≈ 237 mM)
solubility ([3]; Solvent EtOAc): 6600 µg/mL (≈ 12.4 mM)
solubility ([3]; Solvent IPAc): 2900 µg/mL (≈ 5.44 mM)
solubility ([3]; Solvent MTBE): 690 µg/mL (≈ 1.3 mM)
solubility ([3]; Solvent THF): 110000 µg/mL (≈ 207 mM)
solubility ([3]; Solvent Toluene): 4500 µg/mL (≈ 8.45 mM)

Nc1ncccc1-c1nc2ccc(-c3ccccc3)nc2n1-c1ccc(C2(N)CCC2)cc1 [Compound 7, 3-(3-(4-(1-aminocyclobutyl)phenyl)-5-phenyl-3H-imidazo[4,5-b]pyridin-2-yl)pyridin-2-amine]
solubility ([4]; Solvent 2-MeTHF): 4800 µg/mL (≈ 11.1 mM)
solubility ([4]; Solvent DCM): 73000 µg/mL (≈ 169 mM)
solubility ([4]; Solvent EtOAc): 5600 µg/mL (≈ 12.9 mM)
solubility ([4]; Solvent IPAc): 2900 µg/mL (≈ 6.7 mM)
solubility ([4]; Solvent MTBE): 760 µg/mL (≈ 1.76 mM)
solubility ([4]; Solvent THF): 24000 µg/mL (≈ 55.5 mM)
solubility ([4]; Solvent Toluene): 9300 µg/mL (≈ 21.5 mM)
